Data: patent US20250138013A1, “SMALL MOLECULE INHIBITOR TARGETING A LEUKEMIC STEM CELL ASSOCIATED GENE FOR HIGH-RISK AML PATIENTS” (The Chinese University of Hong Kong, priority 2023, published 2025)
“Also recorded” adds a separate entry of the source.

Columns and labels:
[1] = test system: SLC7A11 mRNA expression in MOLM13-EV and MOLM13-SPINK2 cells; assay: qPCR of SLC7A11 after Nutlin-3a in MOLM13-EV and MOLM13-SPINK2 cells; format: cell-based; details: Nutlin-3a 1 μM, 48 hours and 72 hours
Experimental: Previously, p53 transcriptionally represses SLC7A11 expression, thereby playing an important pro-ferroptotic role. The data has shown that p53 pathway genes are inversely affected upon SPINK2 modulation (Tables S11 & S12). Based on the hypothesis that SPINK2 overexpression in MOLM13 cells might counteract the p53-mediated repression of SLC7A11, MOLM13-EV and MOLM13-SPINK2 cells are treated with the p53 activator, Nutlin-3a (1 μM), for 48 hours and 72 hours. […] Of note, the effects of Nutlin-3a could not be tested in KG1a cells, since they have a TP53 mutation which renders them insensitive to Nutlin-3a activity.
GFP-labelled lentiviruses are used for assessing the biological significance of SPINK2 in AML by overexpressing SPINK2 in OCIAML3 and MOLM13 cells (pRSC—SFFV-SPINK2-E2A-Puro-E2A-GFP-Wpre) and empty vector, EV (pRSC—SFFV-Puro-E2A-GFP-wpre) are provided. Transduction is performed in approximately 2×10^5 cells/ml at a multiplicity of infection (MOI) of 20 using Retronectin®-coated 6-well plates according to the manufacturer's instructions (Takara Bio Inc.) This is followed by puromycin selection (1 μg/ml) for at least seven days. Functional studies are then performed on cells as described and extra cells are cryopreserved.

[2] = Solubility in DMSO and other solvents; format: physicochemical
From the text: In another embodiment, the SMI is screened via a structure-based virtual screening (SBVS) and selected from a group of bioactive molecules due to its efficient binding affinity based on its idock scores and its capacity to dissolve in at least one solvent selected from a group comprising of dimethyl sulfoxide (DMSO), water, ethanol or dimethylformamide (DMF).
To identify potential SPINK2-SMIs, Structure-based Virtual Screening (SBVS) is initially employed for in silico screening of a small-molecule library comprising 1.5 million compounds to identify bioactive molecules that bind to the targeting domain of SPINK2 (FIG. 16A).

[3] = test system: STEAP3 mRNA expression in KG1a cells; assay: qPCR of SPINK2 target gene STEAP3 after SMI treatment, KG1a; format: cell-based
Experimental: (§1) The SMI is initially tested with increasing doses for its effect upon cell viability in KG1a cells. […] This dose is then tested on GDM1, MOLM13 and OCIAML3 cells.
(§2) Cells are seeded into 96-well plates at a density of approximately 2×10^5 cells/ml and drugs are added at indicated concentrations. Cell viability is measured at indicated time points using Cell Titer-GLO® Luminescent Cell Viability Assay. For assessment of gene expression after drug treatment, cells are seeded in 6-well plates at approximately 4×10^5 cells/ml and drugs are added at indicated doses. RNA and/or protein is extracted 72 hours later. qPCR and Western Blot are then performed according to standard procedures to detect target gene and protein expression.

[4] = test system: KG1a cells; assay: Cell Titer-GLO cell viability assay, KG1a; format: cell-based
Experimental: as §1
(§3) Cells are treated with the SMIs and control (DMSO) for 72 hours and their viability is detected using the Cell Titer Glo® assay according to the manufacturer's instructions. Statistical analysis is performed using one-way ANOVA with Tukey's multiple comparisons test with Mean+SD of at least 2 independent experiments.
as §2

[5] = test system: SPINK2 protein expression in GDM1 cells; assay: Western blot of SPINK2 protein after SMI treatment, GDM1; format: cell-based
Experimental: as §1
(§4) Cells are harvested, washed in Phosphate-buffered saline (PBS) and lysed using Pierce™ IP Lysis Buffer. Protein concentration is measured using Pierce™ BCA Protein Assay Kit. Approximately 30 μg of whole cell lysates are mixed with 4× Laemmli Buffer and β-mercaptoethanol and denatured for 5 minutes at 95° C. Lysates are equally loaded onto and separated using freshly prepared polyacrylamide gels. Proteins are transferred onto 0.2 μm Immun-Blot® PVDF membranes using FLASHBlot transfer buffer. The membranes are then blocked for one hour at room temperature with 5% non-fat dry milk in TBS Tween™ 20 Buffer. This is followed by incubation with primary antibodies diluted in 5% bovine serum albumin (BSA) at 4° C. overnight. Primary antibody dilutions are as follows: SPINK2 (1:1000), ALCAM (1:10000), β-ACTIN (1:10000), GAPDH (1:2500). […]
(§5) Cells are seeded into 96-well plates at a density of approximately 2×10^5 cells/ml and drugs are added at indicated concentrations. Cell viability is measured at indicated time points using Cell Titer-GLO® Luminescent Cell Viability Assay. […]

[6] = test system: SLC7A11 mRNA expression in KG1a cells; assay: qPCR of SPINK2 target gene SLC7A11 after SMI treatment, KG1a; format: cell-based
Experimental: as §1, §2

[7] = test system: SPINK2^high cells (KG1a and GDM1) vs. SPINK2^low cells (OCIAML3 and MOLM13); assay: Cytotoxicity compared between SPINK2high and SPINK2low cell lines (Cell Titer Glo); format: cell-based; details: 72 h treatment, compared with SMI-2
Experimental: as §3, §2

[8] = test system: GDM1 cells; assay: Cell Titer-GLO cell viability assay, GDM1; format: cell-based; details: GDM1 (SPINK2high), 150 μM for 72 hours
Experimental: as §1, §3, §2

[9] = test system: SPINK2 protein expression in KG1a cells; assay: Western blot of SPINK2 protein after SMI treatment, KG1a; format: cell-based
Experimental: as §1, §4, §5

| SMILES | SLC7A11 mRNA expression [1] | solubility in DMSO [2] | STEAP3 mRNA expression [3] | cytotoxicity at 150 µM ([4]; Homo sapiens, KG-1a, KG1a cells, 150 μM, 72nd hour, read-out: reduction of cell viability) [%] | effect on cell viability ([4]; KG1a (SPINK2high), 150 μM for 72 hours) | SPINK2 protein expression [5] | SLC7A11 mRNA expression [6] | toxicity/specificity against SPINK2high vs SPINK2low cells [7] | toxicity/specificity against SPINK2high vs SPINK2low cells ([7]; listed as SMI-5) | effect on cell viability [8] | SPINK2 protein expression [9] |
| --- | --- | --- | --- | --- | --- | --- | --- | --- | --- | --- | --- |
| COc1ccc(C2=N[C@@H](c3ccc(Cl)cc3)[C@@H](c3ccc(Cl)cc3)N2C(=O)N2CCNC(=O)C2)c(OC(C)C)c1 [Nutlin-3a] | reduced in MOLM13-EV cells to a significantly greater extent than in MOLM13-SPINK2 cells |  |  |  |  |  |  |  |  |  |  |
| C[C@]12C(=O)N(c3cccc(C(=O)O)c3)C(=O)[C@H]1C1c3ccccc3C2c2ccccc21 [SMI, 3-[(15R,19S)-15-methyl-16,18-dioxo-17-azapentacyclo [6.6.5.02,7.09, 14.015,19]nonadeca-2,4,6,9,11,13-hexaen-17-yl]benzoic acid] |  | soluble in DMSO | upregulation | ~50 | significantly decreased cell viability | decreased | downregulation | selectively decreased viability | greater toxicity; also recorded: greater specificity | significantly decreased cell viability | decreased |
